# According to US9096580B2 (priority 2012, dated 2015):
# Tests used:
# [1] = tested on: genotype 1b HCV replicon in Huh-7 cells; assay: HCV replicon luciferase assay; format: cell-based, HCV genotype 1b; details: Hepatitis C virus, 72 h; Huh-7 genotype 1b replicon, Renilla luciferase, 3 days incubation
# Description: The cell lines used to evaluate compounds consist of a human hepatocyte derived cell line (Huh-7) that constitutively expresses a genotype 1b HCV replicon containing a Renilla luciferase reporter gene. These cells were maintained in Dulbecco's modified Eagle medium (DMEM) containing 10% FBS, 100 U/mL penicillin/streptomycin and 1.0 mg/mL G418.
# HCV Replicon Luciferase Assay.
# To evaluate compound efficacy, titrated compounds were transferred to sterile 384-well tissue culture treated plates, and the plates were seeded with HCV replicon cells (50 μL at a density of 2.4×10^3 cells/well) in DMEM containing 4% FBS (final DMSO concentration at 0.5%). After 3 days incubation at 37° C., cells were analyzed for Renilla Luciferase activity using the EnduRen substrate (Promega cat #E6485) according to the manufacturer's directions. Briefly, the EnduRen substrate was diluted in DMEM and then added to the plates to a final concentration of 7.5 μM. The plates were incubated for at least 1 h at 37° C. then read on a Viewlux Imager (PerkinElmer) using a luminescence program. The 50% effective concentration (EC50) was calculated using the four-parameter logistic formula noted above.
# [2] = target: HCV NS5B RdRp, genotype 1b (Hepatitis C virus genotype 1b (isolate Con1) (HCV), UniProt Q9WMX2); assay: HCV NS5B RdRp enzyme assay; format: biochemical, HCV genotype 1b
# HCV NS5B RdRp, genotype 1b, sequence (Q9WMX2 2420-2992): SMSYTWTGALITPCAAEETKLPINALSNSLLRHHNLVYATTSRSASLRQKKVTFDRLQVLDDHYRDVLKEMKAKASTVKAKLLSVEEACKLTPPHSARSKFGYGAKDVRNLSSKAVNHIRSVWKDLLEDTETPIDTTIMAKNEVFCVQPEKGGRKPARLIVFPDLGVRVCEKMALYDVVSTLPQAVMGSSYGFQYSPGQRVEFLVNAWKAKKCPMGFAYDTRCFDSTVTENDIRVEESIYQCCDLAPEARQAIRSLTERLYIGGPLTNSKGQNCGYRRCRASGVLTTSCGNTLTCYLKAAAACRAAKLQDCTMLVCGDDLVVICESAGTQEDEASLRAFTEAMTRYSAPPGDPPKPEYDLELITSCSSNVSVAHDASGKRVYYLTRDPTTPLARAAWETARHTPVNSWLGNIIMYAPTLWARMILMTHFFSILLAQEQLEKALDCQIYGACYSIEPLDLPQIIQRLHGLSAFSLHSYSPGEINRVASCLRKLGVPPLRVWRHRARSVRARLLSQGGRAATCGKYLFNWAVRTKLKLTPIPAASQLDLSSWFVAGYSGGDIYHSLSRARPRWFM
# Description: HCV NS5B RdRp Cloning, Expression, and Purification.
# The cDNA encoding the NS5B protein of HCV, genotype 1b, was cloned into the pET21a expression vector. The protein was expressed with an 18 amino acid C-terminal truncation to enhance the solubility. The E. coli competent cell line BL21(DE3) was used for expression of the protein. Cultures were grown at 37° C. for ˜4 hours until the cultures reached an optical density of 2.0 at 600 nm. The cultures were cooled to 20° C. and induced with 1 mM IPTG. Fresh ampicillin was added to a final concentration of 50 μg/mL and the cells were grown overnight at 20° C.
# The lysis buffer consisted of 20 mM Tris-HCl, pH 7.4, 500 mM NaCl, 0.5% triton X-100, 1 mM DTT, 1 mM EDTA, 20% glycerol, 0.5 mg/mL lysozyme, 10 mM MgCl2, 15 ug/mL deoxyribonuclease I, and Complete TM protease inhibitor tablets (Roche). After addition of the lysis buffer, frozen cell pellets were resuspended using a tissue homogenizer. […]
# After incubating for at least 15 minutes, plates were read on an Amersham LEADseeker multimodality imaging system.
# IC50 values for compounds were determined using ten different [I]. IC50 values were calculated from the inhibition using the four-parameter logistic formula y=A+((B−A)/(1+((C/x)^D))), where A and B denote minimal and maximal % inhibition, respectively, C is the IC50, D is hill slope and x represents compound concentration.
# [3] = tested on: HCV; details: cited from earlier work
# [4] = tested on: HCV; details: combination therapy; cited from earlier work
compound,measurement,setting,value
CNC(=O)c1c(-c2ccc(F)cc2)oc2ccc(-c3cc(C(=O)NC4(c5ncccn5)CNC4)c(OC)cc3C)c(F)c12,EC50,[1],900 nM
CNC(=O)c1c(-c2ccc(F)cc2)oc2ccc(-c3cc(C(=O)NC4(c5ncccn5)CNC4)cc(F)c3C)c(F)c12,IC50,[2],330 nM
same,EC50,[1],390 nM
CNC(=O)c1c(-c2ccc(F)cc2)oc2ccc(-c3cc(C(=O)NC4(c5ncccn5)CN(C)C4)ccc3C)c(F)c12,IC50,[2],780 nM
same,EC50,[1],2460 nM
CNC(=O)c1c(-c2ccc(F)cc2)oc2ccc(-c3cc(C(=O)NC4(c5ncccn5)CN(C)C4)c(OC)cc3C)c(F)c12,EC50,[1],1190 nM
CNC(=O)c1c(-c2ccc(F)cc2)oc2ccc(-c3cc(C(=O)NC4(c5ncccn5)CNC4)ccc3C)c(F)c12 [4-fluoro-2-(4-fluorophenyl)-N-methyl-5-(2-methyl-5-(3-(pyrimidin-2-yl)azetidin-3-ylcarbamoyl)phenyl)benzofuran-3-carboxamide],EC50,[1],4330 nM
CNC(=O)c1c(-c2ccc(F)cc2)oc2ccc(-c3cc(C(=O)NC4(c5ncccn5)CN(C)C4)cc(F)c3C)c(F)c12 [4-fluoro-5-(3-fluoro-2-methyl-5-(1-methyl-3-(pyrimidin-2-yl)azetidin-3-ylcarbamoyl)phenyl)-2-(4-fluorophenyl)-N-methylbenzofuran-3-carboxamide],EC50,[1],820 nM
CNC(=O)c1c(-c2ccc(F)cc2)oc2cc(N(CCO)S(C)(=O)=O)c(C3CC3)cc12 [HCV-796],toxicity during extended dosing,[3]; extended dosing of the combination regimens with interferon and ribavirin,hepatic toxicity
same,HCV RNA levels in patients,"[3]; patients, single agent: transient decrease then rebound",reduce HCV RNA levels
alpha-interferon and ribavirin,"sustained efficacy, share of patients",[4],40%
